We go through five compounds from patent US6410040B1, “Polymeric compounds and methods of formulating same” (Chemeq Limited, priority 1998, dated 2002).

Molecules are shown by their SMILES.

The nature of data set [1]: Migration of sunscreen agents across a membrane model for skin. It counts as in vitro ADME. As to conditions: solution in ethanol. The method, then: The effects of the presence of poly(2-propenal, 2-propenoic acid) on the migration of various agents across a model for skin were studied as follows. Results are shown in Table 8: In a special apparatus, the samples were applied to one side of a 0.45 micron cellulose acetate membrane in contact with, on the other side, a stirred solution of ethanol. “After” 1.5 hours, the spectrum of the “ethanol” was compared with the “Before” solution of sample in the same solvent: […]

The test system of the next data set is Ps. aeruginosa. Briefly: Minimal Kill Concentration Test. It counts as cell-based. The protocol: (§1) 2. Minimal Kill Concentration Test
(§2) Make serial 1 in 2 dilutions of the sample using sterile 0.85% saline. Add 0.1 mL of suspension of test organism to the dilution. Incubate at 37° C. for 24 hours. Subculture 1 mL from each tube into 10 mL sterile nutrient broth plus TWEEN 80; incubate at 37° C. for 24 hours.
(§3) If the Minimum Kill Concentrations of compounds A, B, and a mixture of A and B are a, b and m, respectively, then there is synergy (“S”) upon mixing A and B if
(§4) ie. S=(a+b)/m>1 for synergy

For a further data set, the system named is S. aureus. Briefly: Minimal Kill Concentration Test. It counts as cell-based. The method, then: as §1, §2, §3, §4
For the next data set, the system named is A. niger. Briefly: Minimal Kill Concentration Test. It counts as cell-based. As to conditions: Experiment 1. The protocol:
as §1, §2, §3, §4

For the next data set, the system named is C. albicans. The experiment in a line: Minimal Kill Concentration Test. The format is cell-based. As to conditions: Experiment 1. The protocol:
as §1, §2, §3, §4

Another data set concerns B. cereus. Briefly: Minimal Kill Concentration Test. It counts as cell-based. As to conditions: Experiment 1. The protocol: as §1, §2, §3, §4
The subject of another data set is P. vulgaris. Briefly: Minimal Kill Concentration Test. The format is cell-based. As to conditions: Experiment 1. The protocol: as §1, §2, §3, §4
A further data set has as its system E. coli. The experiment in a line: Minimal Kill Concentration Test. As to conditions: Experiment 1. The format is cell-based. The protocol: as §1, §2, §3, §4

Take `CCCCC(CC)COC(=O)C=Cc1ccc(OC)cc1` (stereo not shown) [octyl methoxy cinnimate]: the “max (UV spectrum), Before” value in data set [1] is on record as “max = 310 nm”.
On the same count and under the same terms, with `CCCCC(CC)COC(=O)c1ccc(N(C)C)cc1` (stereo not shown) [octyl dimethyl p-aminobenzoate] the entry was “max = 315 nm”.
Consider `O=CCCCC=O` [glutaraldehyde], for which the “Minimum Kill Concentration Ps. aeruginosa” value in the data set with Ps. aeruginosa (Experiment 2) amounted to 155 p.p.m. In addition, in the data set on S. aureus (Experiment 2), the “Minimum Kill Concentration S. aureus” value stood at 80 p.p.m.
On the same counts, the results for `Oc1ccccc1-c1ccccc1.[Na]` [phenol, orthophenylphenol, sodium salt] are >10000 p.p.m and 20 p.p.m.
On to `O=C(O)CN(CCN(CC(=O)O)CC(=O)O)CC(=O)O` [EDTA, ethylene diamine tetra acetic acid], for which the “Minimum Kill Concentration A. niger” value with A. niger was 1250 p.p.m. Moreover, the “Minimum Kill Concentration C. albicans” value in the data set with C. albicans is given as 155 p.p.m. The “Minimum Kill Concentration B. cereus” value in the data set on B. cereus was 80 p.p.m. In addition, the “Minimum Kill Concentration Ps. aeruginosa” value with Ps. aeruginosa (Experiment 1) is on record as 625 p.p.m. The “Minimum Kill Concentration S. aureus” value with S. aureus (Experiment 1) turned out to be 625 p.p.m. In addition, the “Minimum Kill Concentration P. vulgaris” value in the data set with P. vulgaris amounted to 155 p.p.m. In addition, the “Minimum Kill Concentration E. coli” value in the data set on E. coli was found to be 80 p.p.m.
